In US20250332151A1, “METHODS OF TREATMENT FOR CYSTIC FIBROSIS” (Vertex Pharmaceuticals Incorporated, priority 2022, published 2025):

Columns and labels:
[1] = First-in-human (FIH) clinical study of safety, tolerability and PK in healthy subjects; type: in vivo; details: single doses 3 mg to 1500 mg (Part A), total daily doses 10 mg to 300 mg for ten days (Part B), Part C, suspension, all cohorts
Method: In a first-in-human (FIH) clinical study of Compound I, the safety, tolerability, and pharmacokinetics (PK) of Compound I in healthy subjects was evaluated. Assessments of the relative bioavailability (BA) of Suspension 2 of Compound I compared to Suspension 1 of Compound I, food effect, and drug drug interactions (DDIs) between Compound I and itraconazole and midazolam were conducted.
This first-in-human (FIH) study of Compound I included three parts (Parts A, B, and C).
Approximately 154 healthy adult subjects were planned to be enrolled in planned cohorts. Approximately 76 subjects were planned to be enrolled in Part A (excluding optional Part A Cohorts), approximately 48 subjects in Part B (excluding optional Part B Cohorts), and approximately 30 subjects in Part C. There was no pre-specified ratio of males to females, but reasonable effort was made to enroll females of non-childbearing potential in all dosing cohorts.
Six dose escalation cohorts were planned for Part A, and five dose escalation cohorts were planned for Part B. Additional cohorts (A7 and A8) in Part A were enrolled based on data from previous cohorts. […]
Food effect was evaluated in an open label, single sequence Cohort A9 to evaluate the effect of food on the PK of Compound I based on emerging PK data during dose escalation. […]

[2] = molecular target: T1, CFTR in F508del/MF-HBE cells (Homo sapiens, UniProt P13569, DEL508-508); assay: Ussing chamber assay of CFTR-mediated short-circuit currents (potentiator activity); type: cell-based; details: 18-24 hours at 37° C. with 10 μM Compound VII, 20% human serum, CFTR-mediated ISC
T1 construct: human bronchial epithelial (HBE) cells derived from CF subjects; endogenous in cells; host or cells: primary human bronchial epithelial cells from CF subjects (F508del/MF-HBE)
T1 sequence (P13569 with tags, fused parts or gaps DEL508-508): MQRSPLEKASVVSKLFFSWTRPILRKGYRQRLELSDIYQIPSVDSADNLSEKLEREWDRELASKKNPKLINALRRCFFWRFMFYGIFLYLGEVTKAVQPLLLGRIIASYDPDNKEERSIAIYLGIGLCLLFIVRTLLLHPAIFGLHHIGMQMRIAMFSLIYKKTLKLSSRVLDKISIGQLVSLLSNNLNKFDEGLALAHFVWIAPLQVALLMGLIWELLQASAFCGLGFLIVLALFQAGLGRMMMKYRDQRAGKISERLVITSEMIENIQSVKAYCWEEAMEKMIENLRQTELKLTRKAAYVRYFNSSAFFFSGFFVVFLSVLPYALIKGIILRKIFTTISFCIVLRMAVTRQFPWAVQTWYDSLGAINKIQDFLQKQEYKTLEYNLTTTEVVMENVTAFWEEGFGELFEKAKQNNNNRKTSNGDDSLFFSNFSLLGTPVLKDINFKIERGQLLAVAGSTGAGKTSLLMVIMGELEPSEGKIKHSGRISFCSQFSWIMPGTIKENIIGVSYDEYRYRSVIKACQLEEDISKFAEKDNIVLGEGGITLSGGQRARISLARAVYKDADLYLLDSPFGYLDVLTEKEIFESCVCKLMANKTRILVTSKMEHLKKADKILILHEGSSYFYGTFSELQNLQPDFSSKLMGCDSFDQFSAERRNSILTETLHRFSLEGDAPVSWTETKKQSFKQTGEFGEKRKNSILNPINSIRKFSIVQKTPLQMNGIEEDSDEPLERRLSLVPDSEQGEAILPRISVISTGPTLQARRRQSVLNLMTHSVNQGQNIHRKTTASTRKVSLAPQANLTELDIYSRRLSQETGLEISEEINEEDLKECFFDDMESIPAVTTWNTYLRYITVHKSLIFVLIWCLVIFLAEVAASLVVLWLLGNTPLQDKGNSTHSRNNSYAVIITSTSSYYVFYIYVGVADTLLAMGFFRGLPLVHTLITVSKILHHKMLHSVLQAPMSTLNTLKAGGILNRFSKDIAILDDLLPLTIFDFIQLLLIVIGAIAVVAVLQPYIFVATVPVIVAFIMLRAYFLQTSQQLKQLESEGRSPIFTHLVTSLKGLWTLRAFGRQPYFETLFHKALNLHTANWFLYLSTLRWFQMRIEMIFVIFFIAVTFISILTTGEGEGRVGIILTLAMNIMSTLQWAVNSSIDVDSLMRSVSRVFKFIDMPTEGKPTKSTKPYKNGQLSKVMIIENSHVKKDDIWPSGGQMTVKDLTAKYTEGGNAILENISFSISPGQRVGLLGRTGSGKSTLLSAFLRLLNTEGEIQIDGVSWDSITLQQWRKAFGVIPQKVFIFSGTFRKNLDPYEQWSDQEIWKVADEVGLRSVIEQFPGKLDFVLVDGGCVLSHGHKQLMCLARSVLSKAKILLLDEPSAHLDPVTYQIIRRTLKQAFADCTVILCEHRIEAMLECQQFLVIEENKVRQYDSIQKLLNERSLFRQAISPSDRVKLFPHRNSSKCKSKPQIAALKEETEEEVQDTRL
Method: Ussing chamber experiments were performed using human bronchial epithelial (HBE) cells derived from CF subjects heterozygous for F508del and a minimal function CFTR mutation (F508del/MF-HBE) and cultured as previously described (Neuberger T, Burton B, Clark H, Van Goor F Methods Mol Biol 2011:741:39-54). After four days the apical media was removed, and the cells were grown at an air liquid interface for >14 days prior to use.
To isolate the CFTR-mediated short-circuit (ISC) current, F508del/MF-HBE grown on Costar® Snapwell™ cell culture inserts were mounted in an Ussing chamber and the transepithelial ISC was measured under voltage-clamp recording conditions (Vhold=0 mV) at 37° C. The basolateral solution contained (in mM) 145 NaCl, 0.83 K2HPO4, 3.3 KH2PO4, 1.2 MgCl2, 1.2 CaCl2), 10 Glucose, 10 HEPES (pH adjusted to 7.4 with NaOH) and the apical solution contained (in mM) 145 NaGluconate, 1.2 MgCl2, 1.2 CaCl2), 10 glucose, 10 HEPES (pH adjusted to 7.4 with NaOH) and 30 μM amiloride to block the epithelial sodium channel. […] The CFTR-mediated ISC (uA/cm2) for each condition was determined from the peak forskolin response to the steady-state current following inhibition.
The activity of the CFTR potentiator compounds on the CFTR-mediated ISC was determined in Ussing chamber studies as described above. […]

Question: For `CC1(C)CCCCC[C@](O)(C(F)(F)F)C2=NN=C(O2)c2nc(c(C(F)(F)F)cc2N)N1` [Compound I, (6R)-17-amino-12,12-dimethyl-6,15-bis(trifluoromethyl)-19-oxa-3,4,13,18-tetrazatricyclo[12.3.1.12,5]nonadeca-1 (18),2,4,14,16-pentaen-6-ol], which safety and tolerability [1] is on record?
Answer: generally safe and well-tolerated

Question: And the EC50 [2]?
Answer: < 500 nM
